Reference: US9464064B2, “HCV helicase inhibitors and methods of use thereof” (University of Kansas, priority 2011, dated 2016)

Experiments:
[1] = tested on: HCV replicon RNA; test: HCV RNA RT-qPCR assay in replicon cells; format: cell-based, hepatitis C virus; details: qRT-PCR, 10 days of treatment
Experimental: For the HCV RNA reverse transciptase quantitative PCR (RT-qPCR) assay, cells were treated, washed 2 times with PBS, harvested, and collected by centrifugation (1000 g) for 5 minutes at 4° C. Total RNA was then extracted using the TRIZOL kit (Invitrogen) and suspended in 30 μL of nuclease-free water. RNA concentration was determined from A260. RT-qPCR was performed using TAQMAN probes, 1 μg total RNA and the QSCRIPT One-step Fast qRT-PCR kit (Quanta Biosciences, Gaithersburg, Md.). Reverse transcription was carried out at 50° C. for 20 minutes followed by one cycle at 95° C. for 5 minutes and 40 cycles at 95° C. for 15 seconds and 60° C. for 1 minute. […] The amount of HCV RNA in each sample was determined by first calculating the ΔCT of each sample, which was obtained by subtracting the threshold cycle (CT) obtained with the rRNA primers obtained from that of the CT with the HCV primers. ΔΔCT values were obtained by subtracting ΔCT values obtained in the presence of compound from ΔCT obtained with cells treated with DMSO only. The relative changes in HCV RNA levels were then calculated by assuming that each CT difference reflected a two-fold difference in RNA level (i.e., Expression=2^−ΔΔCT).

[2] = tested on: NS5A in Huh7.5/HCV Con1sg Rluc replicon cells; test: Western blot of NS5A in replicon cells; format: cell-based, hepatitis C virus; details: 4-day exposure
Experimental: To analyze effects on HCV proteins expression by western blot, Huh7.5/HCV Con1sg Rluc replicon stable cells were washed with PBS, harvested in PBS, and lysed with RIPA buffer for 20 minutes on ice and cleared lysates were obtained by centrifugation at 14,000 rpm for 20 minutes at 4° C. Protein concentrations were determined with the BIO-RAD protein assay kit (Bio-Rad) and 15 μg total proteins was resolved on 10% sodium dodecyl sulfate-polyacrylamide gel electrophoresis (SDS-PAGE) and transferred to nitrocellulose membrane. The blots were probed with primary anti-NS5A mAb (Meridian life Sciences, Saco, Me.) and a peroxidase-conjugated secondary antibody (Cell Signaling, Danvers, Mass.) and were developed with enhanced chemiluminescence (ECL) detection reagents (Pierce, Rockford, Ill.). The blots were stripped and probed again with primary anti-tubulin antibody (Sigma) to confirm equal loading of protein and a peroxidase-conjugated anti-mouse secondary antibody (Cell Signaling) and developed with ECL reagents (Pierce).
To further characterize the anti-viral activity of this class of compounds, HCV Renilla luciferase (Rluc) subgenomic replicon cells were exposed to different concentrations of compound 24 and the effect of compound 24 on HCV replication was assessed on HCV Rluc reporter gene activity. […]

[3] = Plasma stability, mouse; format: in vitro ADME; details: percent remaining at 3 hours
Experimental: Stability of compounds in human plasma (BioChemed Services) and mouse plasma (BioChemed Services) were determined. All liquid was dispensed and transfer steps were performed with the FREEDOM EVO automated liquid handler (Tecan US). Plasma was allowed to thaw at room temperature prior to preparing the assay solution of plasma:1×PBS (1:1). The assay solution was warmed up at 37° C. prior of adding the compound. Immediately after compounds were added, time 0 minute aliquots were promptly collected and mixed with cold acetonitrile (spiked with an internal standard). The remainder of the reaction volume was incubated at 37° C. with shaking. Additional aliquots were collected 180 minutes after the start of the reaction and promptly quenched with cold acetonitrile (spiked with an internal standard). Samples were centrifuged at 3000 rpm for 10 minutes. The amount of compound in the supernatant was determined by LC/MS/MS (Applied Biosystems, Sciex API4000 Q-TRAP) and the percent of parent compound remaining after 180 minutes was calculated by the following formula: % parent compound remaining=[(concentration at 180 minutes/concentration at 0 minutes)×100]. Results reported are the mean of each reaction duplicate, normalized to the internal standard, and expressed as a percent of compound remaining after the incubation time. […]

[4] = Hepatic microsome stability, mouse; format: in vitro ADME; details: percent remaining at 1 hour
Experimental: Metabolic stability was assessed in the presence of human liver microsomes (XenoTech) and mouse liver mirosomes (XenoTech). All liquid was dispensed and transfer steps were performed with the FREEDOM EVO automated liquid handler (Tecan US). NADPH, a required cofactor for CYP450 metabolism, was provided by the NADPH Regenerating System, Solutions A (BD Biosciences) and B (BD Biosciences). Compound stock solutions were initially prepared in 100% DMSO and subsequently diluted in acetonitrile for the assay. The pH of the reactions was kept at ˜7.4 with potassium phosphate buffer (BD Biosciences). The reactions were started after adding NADPH to the reaction plate containing microsomes and compounds and time 0 minutes aliquots were promptly collected and mixed with ice cold acetonitrile (spiked with internal standards) to quench the reactions. The remainder of the reaction volume was incubated at 37° C. with shaking. […] The amount of compound in the supernatant was determined by LC/MS/MS (Applied Biosystems, Sciex API4000 Q-TRAP) and the percent of parent compound remaining after 60 minutes was calculated by the following formula: % parent compound remaining=[(concentration at 60 minutes/concentration at 0 minutes)×100]. […] Results reported are the mean of each reaction triplicate, normalized to the internal standard, and expressed as a percent compound remaining after the incubation time. […]

SMILES | decrease of HCV replicon RNA content [1] | cellular NS5A levels [2] | Plasma Stability Mouse [3] [%] | Hepatic Microsome Stability Mouse [4] [%]
Cc1ccc2nc(-c3ccc4nc(-c5ccc(NC(=O)c6cc(C(F)(F)F)cc(C(F)(F)F)c6)cc5)sc4c3)sc2c1S(=O)(=O)O [Compound 24, 2′-(4-(3,5-bis(trifluoromethyl)benzamido)phenyl)-6-methyl-[2,6′-bibenzo[d]thiazole]-7-sulfonic acid] | about 13 fold | reduced NS5A levels in a time-dependent manner | – | –
Cc1ccc2nc(-c3ccc4nc(-c5ccc(NC(=O)c6cccc(Cl)c6)cc5)sc4c3)sc2c1S(=O)(=O)O [Compound 17, 2′-(4-(3-chlorobenzamido)phenyl)-6-methyl-[2,6′-bibenzo[d]thiazole]-7-sulfonic acid] | – | – | 95.0 | 83.11
